The format of one series is physicochemical. The following applies: HPLC on reversed phase columns, method [a]: pH 2.7, 0.1% formic acid in water / acetonitrile, linear gradient 10% to 95% acetonitrile.
Take `CC(C)NC(=O)C1(F)CC(c2ccc3ncc(Br)cc3c2)=NO1` (stereo not shown) [compound 280]: the “log P” value is 2.69[a].

As to `CC(=O)C1(C(=O)NC(C)C)CC(c2ccc3ncc(Br)cc3c2)=NO1` (stereo not shown) [compound 281], the “log P” value was 2.88[a].

In the case of `CCC1C(c2ccc3ncc(Br)cc3c2)=NOC1(C)C(=O)NC(C)C` (stereo not shown) [compound 283], the “log P” value is 3.76[a].

In the case of `CCn1cc(CNC(=O)C2(C)CC(c3ccc4ncc(C#N)cc4c3)=NO2)c(C)n1` (stereo not shown) [compound 288], the “log P” value was 1.80[a].

Take `CN(C)CCCNC(=O)C1(C)CC(c2ccc3ncc(Br)cc3c2)=NO1` (stereo not shown) [compound 297]: the “log P” value is 1.23[a].

Regarding `COCC#CC(C)(C)NC(=O)C1(C)CC(c2ccc3ncc(Br)cc3c2)=NO1` (stereo not shown) [compound 299], the “log P” value is 3.19[a].

Turning to `CCn1cc(CNC(=O)C2(C)CC(c3ccc4nc(C#N)c(Br)cc4c3)=NO2)c(C)n1` (stereo not shown) [compound 302], the “log P” value was 2.57[a].

Consider `CC(C)NC(=O)C1(C)CC(c2ccc3nc(C#N)c(Br)cc3c2)=NO1` (stereo not shown) [compound 303], for which the “log P” value is 3.00[a].

As to `C=Cc1cnc2ccc(C3=NOC(C)(C(=O)NCc4cn(CC)nc4C)C3)cc2c1` (stereo not shown) [compound 308], the “log P” value was 1.95[a].

For the molecule `CC1CCCC1(C#N)NC(=O)C1(C)CC(c2ccc3ncc(Br)cc3c2)=NO1` (stereo not shown) [compound 313], the “log P” value was 3.27[a].

With `CC1(C(=O)NC(COc2ccc(F)cc2)C2CC2)CC(c2ccc3ncc(Br)cc3c2)=NO1` (stereo not shown) [compound 315], the “log P” value was 3.99[a].

Take `C#Cc1cnc2ccc(C3=NOC(C)(C(=O)NC(C)CC(C)C)C3)cc2c1` (stereo not shown) [compound 316]: the “log P” value was 3.37[a].

On to `CC1(C(=O)NC2CC2)CC(c2ccc3ncc(Br)cc3c2)=NO1` (stereo not shown) [compound 317], for which the “log P” value was 2.40[a].

Turning to `C#Cc1cnc2ccc(C3=NOC(C)(C(=O)NC(COc4ccc(F)cc4)C4CC4)C3)cc2c1` (stereo not shown) [compound 318], the “log P” value is 3.58[a].

As for `CC(C)(C)NC(=O)C1(C)CC(c2ccc3ncc(Br)cc3c2)=NO1` (stereo not shown) [compound 319], the “log P” value is 3.39[a].

For `C#Cc1cnc2ccc(C3=NOC(C)(C(=O)NC(C)(C)C(C)C)C3)cc2c1` (stereo not shown) [compound 320], the “log P” value is 3.71[a].

With `CC(C)CC(C)NC(=O)C1(C)CC(c2ccc3ncc(Br)cc3c2)=NO1` (stereo not shown) [compound 321], the “log P” value is 3.80[a].

As for `C#Cc1cnc2ccc(C3=NOC(C)(C(=O)NC(C#N)c4ccccc4)C3)cc2c1` (stereo not shown) [compound 324], the “log P” value is 2.88[a].

Regarding `CC(C)C(C)(C)NC(=O)C1(C)CC(c2ccc3ncc(Br)cc3c2)=NO1` (stereo not shown) [compound 325], the “log P” value was 4.19[a].

Turning to `CC(NC(=O)C1(C)CC(c2ccc3ncc(Br)cc3c2)=NO1)c1nn(C)c(=O)n1C` (stereo not shown) [compound 327], the “log P” value was 1.99[a].

Take `CC(C)CCC(C)NC(=O)C1(C)CC(c2ccc3ncc(Br)cc3c2)=NO1` (stereo not shown) [compound 328]: the “log P” value is 4.21[a].

For `CC(NC(=O)C1(C)CC(c2ccc3ncc(Br)cc3c2)=NO1)c1cccc2ccccc12` (stereo not shown) [compound 340], the “log P” value was 4.09[a].

Turning to `C#Cc1cnc2ccc(C3=NOC(C)(C(=O)NC(C)c4ccc(OC(F)(F)F)cc4)C3)cc2c1` (stereo not shown) [compound 342], the “log P” value is 3.71[a].

Consider `CC(NC(=O)C1(C)CC(c2ccc3ncc(Br)cc3c2)=NO1)c1ccc(OC(F)(F)F)cc1` (stereo not shown) [compound 344], for which the “log P” value is 4.16[a].

With `C#Cc1cnc2ccc(C3=NOC(C)(C(=O)NC(C)c4ccc(Cl)cc4)C3)cc2c1` (stereo not shown) [compound 346], the “log P” value is 3.44[a].

On to `CC(NC(=O)C1(C)CC(c2ccc3ncc(Br)cc3c2)=NO1)c1ccc(Cl)cc1` (stereo not shown) [compound 348], for which the “log P” value was 3.87[a].

Turning to `C#Cc1cnc2ccc(C3=NOC(C)(C(=O)NC(C)c4nn(C)c(=O)n4C)C3)cc2c1` (stereo not shown) [compound 352], the “log P” value was 1.76[a].

Consider `C#Cc1cnc2ccc(C3=NOC(C)(C(=O)NC(c4cccc(C)c4)C(F)(F)F)C3)cc2c1` (stereo not shown) [compound 354], for which the “log P” value was 3.92[a].

In the case of `CC1(C(=O)NC(C#N)c2ccccc2)CC(c2ccc3ncc(Br)cc3c2)=NO1` (stereo not shown) [compound 356], the “log P” value was 3.25[a].

Consider `Cc1cccc(C(NC(=O)C2(C)CC(c3ccc4ncc(Br)cc4c3)=NO2)C(F)(F)F)c1` (stereo not shown) [compound 358], for which the “log P” value is 4.36[a].

In the case of `C#Cc1cnc2ccc(C3=NOC(C)(C(=O)NC(CN(C)c4ccccc4)C4CC4)C3)cc2c1` (stereo not shown) [compound 359], the “log P” value is 3.69[a].

Turning to `CC1(C(=O)NC(c2cccc(Cl)c2)C(F)(F)F)CC(c2ccc3ncc(Br)cc3c2)=NO1` (stereo not shown) [compound 360], the “log P” value was 4.39[a].

Turning to `C#Cc1cnc2ccc(C3=NOC(C)(C(=S)NCC4COC(C)(C)O4)C3)cc2c1` (stereo not shown) [compound 513], the “log P” value is 3.44[a].

As for `C=C(C)C1(C(=O)NCCCOCC)CC(c2ccc3ncc(Br)cc3c2)=NO1` (stereo not shown) [compound 518], the “log P” value is 3.37[a].

Regarding `C=C(C)C1(C(=O)NCc2cn(CCC)nc2C)CC(c2ccc3ncc(Br)cc3c2)=NO1` (stereo not shown) [compound 519], the “log P” value was 3.17[a].

Take `C=C(C)C1(C(=O)NC2CCC2)CC(c2ccc3ncc(Br)cc3c2)=NO1` (stereo not shown) [compound 521]: the “log P” value was 3.61[a].

`C=C(C)C1(C(=O)NCc2cn(CC)nc2C)CC(c2ccc3ncc(Br)cc3c2)=NO1` (stereo not shown) [compound 526]: the “log P” value is 2.91[a].

Regarding `CC(C)NC(=O)C1(C(C)O)CC(c2ccc3ncc(Br)cc3c2)=NO1` (stereo not shown) [compound 552], the “log P” value was 2.23[a].

`CC(O)C1(C(=O)NC2CCC2)CC(c2ccc3ncc(Br)cc3c2)=NO1` (stereo not shown) [compound 563]: the “log P” value is 2.41[a].

As for `C#Cc1cnc2c(C)cc(C3=NOC(C)(C(=O)NC(C)C)C3)cc2c1` (stereo not shown) [compound 571], the “log P” value is 3.06[a].

`Cc1cc(C2=NOC(C)(C(=O)NC(C)C)C2)cc2cc(Br)cnc12` (stereo not shown) [compound 573]: the “log P” value was 3.51[a].

On to `COC1(C(=O)NCc2cnc(C)cn2)CC(c2cc(Cl)c3ncc(Br)cc3c2)=NO1` (stereo not shown) [compound 575], for which the “log P” value was 2.62[a].

As to `COC1(C(=O)NC2CCC2)CC(c2cc(Cl)c3ncc(Br)cc3c2)=NO1` (stereo not shown) [compound 576], the “log P” value is 3.33[a].

With `CCOCCCNC(=O)C1(OC)CC(c2cc(Cl)c3ncc(Br)cc3c2)=NO1` (stereo not shown) [compound 577], the “log P” value was 3.19[a].

On to `C#Cc1cnc2c(C)cc(C3=NOC(C)(C(=O)NC4CCC4)C3)cc2c1` (stereo not shown) [compound 578], for which the “log P” value was 3.25[a].

For `Cc1cc(C2=NOC(C)(C(=O)NC3CCC3)C2)cc2cc(Br)cnc12` (stereo not shown) [compound 579], the “log P” value was 3.71[a].

Regarding `CCn1cc(CNC(=O)C2(C)CC(c3cc(C)c4ncc(Br)cc4c3)=NO2)c(C)n1` (stereo not shown) [compound 580], the “log P” value was 2.96[a].

With `C#Cc1cnc2c(C)cc(C3=NOC(C)(C(=O)NCc4cn(CC)nc4C)C3)cc2c1` (stereo not shown) [compound 581], the “log P” value is 2.62[a].

Turning to `CCOCCCNC(=O)C1(C(C)=O)CC(c2ccc3ncc(Br)cc3c2)=NO1` (stereo not shown) [compound 582], the “log P” value was 2.90[a].

Still in this series, the particulars now being: method [a]: HPLC/LC-MS on reversed phase at pH 2.7, 0.1% formic acid in water / acetonitrile, gradient 10% to 95% acetonitrile.
In the case of `CN(CC(NC(=O)C1(C)CC(c2ccc3ncc(Br)cc3c2)=NO1)C1CC1)c1ccccc1` (stereo not shown) [compound 362], the “log P” value is 4.19[a].

Consider `CC1(C(=O)NC(CN2CCCC2)C2CC2)CC(c2ccc3ncc(Br)cc3c2)=NO1` (stereo not shown) [compound 364], for which the “log P” value is 1.53[a].

For `CC(C)NC(=O)C1(C[Si](C)(C)C)CC(c2ccc3ncc(Br)cc3c2)=NO1` (stereo not shown) [compound 395], the “log P” value was 4.66[a].

Regarding `C#Cc1cc2cc(C3=NOC(C)(C(=O)NC(C)C)C3)ccc2nc1C#N` (stereo not shown) [compound 404], the “log P” value was 2.77[a].

For `CCn1cc(CNC(=O)C2(C)CC(c3ccc4ncc(C(F)=CC(F)(F)F)cc4c3)=NO2)c(C)n1` (stereo not shown) [compound 405], the “log P” value is 2.84[a].

As to `CCn1cc(CNC(=O)C2(C[Si](C)(C)C)CC(c3ccc4ncc(Br)cc4c3)=NO2)c(C)n1` (stereo not shown) [compound 413], the “log P” value was 2.83[a].

Regarding `CCn1cc(CNC(=O)C2(C)CC(c3ccc4ncc(NC(=O)OC(C)(C)C)cc4c3)=NO2)c(C)n1` (stereo not shown) [compound 421], the “log P” value was 2.44[a].

Take `C#Cc1cnc2ccc(C3=NOC(C)(C(=O)NC(COC)COC)C3)cc2c1` (stereo not shown) [compound 459]: the “log P” value is 2.30[a].

With `C#Cc1cnc2ccc(C3=NOC(C)(C(=O)NC4=NCCO4)C3)cc2c1` (stereo not shown) [compound 460], the “log P” value was 1.52[a].

On to `CCn1cc(CNC(=S)C2(OC)CC(c3ccc4ncc(Br)cc4c3)=NO2)c(C)n1` (stereo not shown) [compound 478], for which the “log P” value is 3.15[a].

Take `CC1(C(=O)NCc2ccsc2)CC(c2ccc3ncc(Br)cc3c2)=NO1` (stereo not shown) [compound 479]: the “log P” value is 3.07[a].

`CCn1cc(CNC(=O)C2(C)CC(c3ccc4nc(C(N)=O)c(I)cc4c3)=NO2)c(C)n1` (stereo not shown) [compound 484]: the “log P” value is 1.60[a].

For the molecule `COc1nc2ccc(C3=NOC(C)(C(=O)NC(C)C)C3)cc2cc1I` (stereo not shown) [compound 485], the “log P” value was 3.72[a].

Regarding `CC(C)NC(=O)C1(C)CC(c2ccc3nc(Cl)c(I)cc3c2)=NO1` (stereo not shown) [compound 486], the “log P” value is 3.50[a].

As to `Cc1ncsc1CNC(=O)C1(C)CC(c2ccc3ncc(Br)cc3c2)=NO1` (stereo not shown) [compound 487], the “log P” value is 2.28[a].

Consider `CC1(C(=O)NCc2nccs2)CC(c2ccc3ncc(Br)cc3c2)=NO1` (stereo not shown) [compound 488], for which the “log P” value was 2.32[a].

Regarding `CCn1nc(C)c(NC(=O)C2(C)CC(c3ccc4ncc(Br)cc4c3)=NO2)c1C` (stereo not shown) [compound 492], the “log P” value was 2.41[a].

For the molecule `CC1(C(=O)NC(C)(C)c2ccon2)CC(c2ccc3ncc(Br)cc3c2)=NO1` (stereo not shown) [compound 494], the “log P” value is 2.86[a].

Take `CC1(C(=O)NC2=NCCO2)CC(c2ccc3ncc(Br)cc3c2)=NO1` (stereo not shown) [compound 495]: the “log P” value was 1.71[a].

For the molecule `CCC1(C(=O)NCC2COC(C)(C)O2)CC(c2ccc3ncc(Br)cc3c2)=NO1` (stereo not shown) [compound 499], the “log P” value is 2.99[a].

With `CC(C)NC(=O)C1(C)CC(c2ccc3nc(C#N)c(I)cc3c2)=NO1` (stereo not shown) [compound 510], the “log P” value was 3.04[a].

The record behind these values is patent US9510598B2, “Nitrogen-containing heterocyclic compounds for plant disease control” (BAYER CROPSCIENCE AG, priority 2012, dated 2016).
